Source: patent US20080312209A1, “Piperazine Heteroaryl Derivatives as Gpr38 Agonists” (Glaxo Group Limited, priority 2005, published 2008)
Counter-ions that a name gives are not always drawn.

Assays:
hGPR38R [1] = molecular target: T1, hGPR38R (Homo sapiens, UniProt O43193); test: GPR38 FLIPR functional agonist assay; type: cell-based; parameters: expressed in transfected cells; conditions: HEK-293 cells stably expressing the GPR38 receptor, agonist response, Fluo-4 fluorescence
Procedure: The potencies and efficacies of the compounds of this invention for GPR^38 can be determined by FLIPR assay performed on the human cloned receptor as described herein. It has been found, using the FLIPR functional assay, that compounds of formula (I) appear to be partial or full agonists of the GPR38 receptor.
GPR38FLIPR Functional Agonist Assay Protocol
HEK-293 cells stably expressing the GPR38 receptor were seeded (10,000 cells/well) into poly-D-lysine coated 384-well black-wall, clear-bottom microtitre plates (Becton Dickinson) 24 h prior to assay. On day of assay, cells were washed (×2) with 80 ul of assay buffer (Hanks Balanced Salts Solution (HBSS), 10 mM HEPES, 200 μM Ca^2+, 2.5 mM probenecid) using the EMBLA cell washer. After the final wash, buffer was aspirated to leave a residual volume of 30 ul on the cells. Cells were loaded with 1 μM (final) Fluo-4-AM fluorescent indicator dye (TefLabs) in assay buffer, (20 ul loading solution added to each well using the Multidrop). Plates were incubated for 1 h at 37° C., before being washed (×3) with 80 ul assay buffer using the EMBLA cell washer; 30 ul residual being left after the final wash. Plates were then assayed on a Fluorometric Imaging Plate Reader (FLIPR, Molecular Devices). Test compounds were prepared in assay buffer without probenecid, but containing 0.03% CHAPS. In the FLIPR, 10 ul of test compound was added to the cells and changes in fluorescence measured over a 2 min timeframe. Maximum change in fluorescence over baseline was used to determine agonist response and concentration response curves were constructed, using a 4-parameter logistic equation.
(§1) The following alternative procedure may also be used:
HEK-293 cells stably expressing the GPR38 receptor were seeded (30,000 cells/100 ul growth media/well) into poly-D-lysine coated 96-well black-wall, clear-bottom microtitre plates (Corning) 24 hours prior to assay. On the day of assay the cells were loaded with 2 μM (final) Fluo-4-AM fluorescent indicator dye (Molecular Probes) and 1 mM (final) probenicid in assay buffer (145 mM sodium chloride, 2.5 mM potassium chloride, 10 mM Hepes, 10 mM glucose, 1.2 mM magnesium chloride, 1.5 mM calcium chloride and 0.1% BSA) (50 ul loading solution added to each well). Plates were incubated for 1 hour at 25° C., before being washed 4 times with 100 ul assay buffer using the EMBLA cell washer; 150 ul residual being left after the final wash. The cells were then incubated at 25° C. for 20 minutes and the plates were then assayed on a Fluorometric Imaging Plate Reader (FLIPR, Molecular Devices). Test compounds were prepared in assay buffer without probenecid. In the FLIPR, 50 ul of test compound was added to the cells and changes in fluorescence measured over a 2 minute timeframe. Maximum change in fluorescence over baseline was used to determine agonist response and concentration response curves were constructed, using a 4-parameter logistic equation.
Target sequence in this assay (O43193 whole entry): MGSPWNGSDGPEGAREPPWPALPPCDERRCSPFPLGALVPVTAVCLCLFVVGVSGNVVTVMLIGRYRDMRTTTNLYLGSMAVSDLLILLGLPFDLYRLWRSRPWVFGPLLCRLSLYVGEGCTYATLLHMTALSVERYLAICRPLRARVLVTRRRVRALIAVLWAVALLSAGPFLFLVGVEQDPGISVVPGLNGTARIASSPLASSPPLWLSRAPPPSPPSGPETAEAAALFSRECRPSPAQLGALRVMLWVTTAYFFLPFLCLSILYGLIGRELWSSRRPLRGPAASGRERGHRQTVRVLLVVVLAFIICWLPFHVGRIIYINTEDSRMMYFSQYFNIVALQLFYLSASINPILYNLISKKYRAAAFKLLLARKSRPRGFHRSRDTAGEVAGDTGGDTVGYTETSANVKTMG

hGPR38R [2] = molecular target: T1, hGPR38R; test: GPR38 GTPγS functional agonist assay; type: biochemical; parameters: expressed in transfected cells; host or cells: HEK293 (transient transfection; P2 membrane fractions)
Procedure: The potencies and intrinsic activities of the compounds of this invention can also be determined according to the [35S]GTPγS functional assay which is described herein. It has been found, using the [35S]GTPγS functional assay, that compounds of formula (I) appear to be partial or full agonists of the GPR38 receptor.
GPR38GTPγS Functional Agonist Assay Protocol
For each compound being assayed, in an Opti clear bottom 96 well plate, is added:—
(a) 20 μl of test compound (or 10 μl of guanosine 5′-triphosphate (GTP) as non-specific binding control) diluted to required concentration in assay buffer (20 mM N-2-Hydroxyethylpiperazine-N′-2-ethanesulfonic acid (HEPES)+100 mM NaCl+10 mM MgCl2, pH adjusted to 7.4 with NaOH); (b) 60 μl bead/membrane/GDP mix prepared by suspending wheat germ agglutinin-polyvinyltoluene (WGA-PVT) scintillation proximity assay (SPA) beads at 100 mg/ml in assay buffer followed by mixing with membrane (prepared in accordance with the methodology described above) and diluting in assay buffer to give a final volume of 60 μl which contains 10 μg protein and 0.5 mg bead per well—mixture is pre-mixed at 4° C. for 30 min on a roller and just prior to addition to the plate, 10 μM final concentration of guanosine 5′ diphosphate (GDP—diluted in assay buffer) is added; (c) 20 μl guanosine 5′ [γ35-S]thiotriphosphate, triethylamine salt (Amersham; radioactivity concentration=37 kBq/μl or 1 mCi/ml; Specific Activity 1160 Ci/mmol) diluted to 1.9 nM in assay buffer to give 0.38 nM final.
The plate is incubated on a shaker at 25° C. for 30 min followed by centrifugation for 5 min at 1500 rpm. The plate is read between 3 and 6 h after completion of centrifuge run in a Wallac Microbeta counter on a 1 min normalised tritium count protocol. Data is analysed using a 4-parameter logistic equation. Basal activity used as minimum.
as §1
Target sequence in this assay (O43193 whole entry): as above
Target sequence in this assay (P09471 2-354 partner limits assumed): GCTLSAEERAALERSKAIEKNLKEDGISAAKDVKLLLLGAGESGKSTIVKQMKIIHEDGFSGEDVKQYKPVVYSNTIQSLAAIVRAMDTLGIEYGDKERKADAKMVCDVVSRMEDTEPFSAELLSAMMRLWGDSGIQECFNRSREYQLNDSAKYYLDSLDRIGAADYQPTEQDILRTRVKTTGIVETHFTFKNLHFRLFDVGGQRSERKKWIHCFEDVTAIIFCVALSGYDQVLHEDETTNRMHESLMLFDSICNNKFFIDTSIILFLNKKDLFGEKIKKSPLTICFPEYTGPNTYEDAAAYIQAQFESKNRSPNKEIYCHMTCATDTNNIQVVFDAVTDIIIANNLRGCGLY
Target sequence in this assay (P62873 2-340 partner limits assumed): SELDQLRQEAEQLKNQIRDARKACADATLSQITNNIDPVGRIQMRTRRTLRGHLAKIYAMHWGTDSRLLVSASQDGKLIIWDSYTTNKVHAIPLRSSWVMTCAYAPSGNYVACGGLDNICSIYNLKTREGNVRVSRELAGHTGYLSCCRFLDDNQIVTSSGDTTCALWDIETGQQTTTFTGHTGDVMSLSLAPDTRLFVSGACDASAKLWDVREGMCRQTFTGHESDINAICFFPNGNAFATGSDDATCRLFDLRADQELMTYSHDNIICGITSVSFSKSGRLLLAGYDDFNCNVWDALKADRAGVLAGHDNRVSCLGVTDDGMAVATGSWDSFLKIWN
Target sequence in this assay (P59768 2-68 partner limits assumed): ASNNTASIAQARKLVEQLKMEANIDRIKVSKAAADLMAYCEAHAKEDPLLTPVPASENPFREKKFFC
Membranes are derived from bulk cell cultures of HEK293 cell lines transiently transfected with hGPR38R and Go G-protein. P2 membranes fractions are prepared, aliquoted and stored at −80° C.
For each compound being assayed, the following is added into a white Greiner 384 well plate:—
(a) 1 μl of test compound diluted to required concentration in DMSO. (b) 20 μl bead/membrane/Saponin/GDP mix prepared as follows;—suspension of LEADseeker wheat germ agglutinin (WGA) scintillation proximity assay (SPA) beads at 25 mg/ml in assay buffer (20 mM N-2-Hydroxyethylpiperazine-N′-2-ethanesulfonic acid (HEPES)+100 mM NaCl+10 mM MgCl2, pH adjusted to 7.4 with KOH) containing saponin at 150 ug/ml. Mixing of bead suspension with membranes at 500 ug/ml (prepared in accordance with the methodology described above) and diluting in assay buffer to give a final volume of 20 μl which contains 5 μg protein and 0.25 mg bead per well.
Mixture is pre-mixed for 30 minutes on a roller and just prior to addition to the plate, 3 μM final assay concentration of guanosine 5′ diphosphate (GDP) (diluted in assay buffer) is added.
(c) 25 μl guanosine 5′ [γ35-S]thiotriphosphate, triethylamine salt (Amersham; radioactivity concentration=37 kBq/μl or 1 mCi/ml; Specific Activity 1160 Ci/mmol) diluted to 0.6 nM in assay buffer to give 0.33 nM final assay concentration.
The plate is then spun for 2 minutes at 1500 rpm and then incubated at room temperature for 4 hours. The plate is then read on a Viewlux Plux (Perkin Elmer). Data is analysed using a 4-parameter logistic equation.

[3] = read-out: pEC50 in the FLIPR assay (converted)
[4] = [35S]GTPγS SPA, HEK293 membranes with hGPR38R and Go G-protein, read-out: pEC50 in the GTPγS assay (converted)

| Structure (SMILES) | EC50 (hGPR38R [1]; [3]) [nM] | EC50 (hGPR38R [2]; [4]) [nM] | EC50 (hGPR38R [1]; pEC50 in the FLIPR assay) [nM] | EC50 (hGPR38R [2]) [nM] |
| --- | --- | --- | --- | --- |
| Cc1nc(CN(C)C(=O)CCc2ccc(F)cc2)c(-c2ccc(CN3C[C@@H](C)N[C@@H](C)C3)cc2)s1 [Example 6, N-{[5-(4-{[(3R,5S)-3,5-Dimethyl-1-piperazinyl]methyl}phenyl)-2-methyl-1,3-thiazol-4-yl]methyl}-3-(4-fluorophenyl)-N-methylpropanamide dihydrochloride] | < 316 | < 3160 | – | – |
| C[C@@H]1CN(Cc2ccc(-c3cccnc3C(=O)N3CCC(Sc4ccc(Cl)cc4)CC3)cc2F)C[C@H](C)N1 [Example 13, (3R,5S)-1-({4-[2-({4-[(4-chlorophenyl)thio]-1-piperidinyl}carbonyl)-3-pyridinyl]-2-fluorophenyl}methyl)-3,5-dimethylpiperazine] | < 316 | < 3160 | – | – |
| C[C@@H]1CN(Cc2ccc(-c3cccnc3S(=O)(=O)N3CCC(Nc4ccccc4F)CC3)cc2F)C[C@H](C)N1 [Example 20, 1-{[3-(4-{[(3R,5S)-3,5-Dimethyl-1-piperazinyl]methyl}-3-fluorophenyl)-2-pyridinyl]sulfonyl}-N-(2-fluorophenyl)-4-piperidinamine] | < 1000 | < 3160 | – | – |
| C[C@@H]1CN(Cc2ccc(-c3cccnc3C(=O)N3CCC(Nc4ccc(F)c(F)c4)CC3)cc2)C[C@H](C)N1 [Example 15, N-(3,4-difluorophenyl)-1-{[3-(4-{[(3R,5S)-3,5-dimethyl-1-piperazinyl]methyl}phenyl)-2-pyridinyl]carbonyl}-4-piperidinamine] | – | – | < 316 | < 3160 |
| C[C@@H]1CN(Cc2ccc(-c3cccnc3C(=O)N3CCC(Nc4ccc(F)cc4)CC3)cc2F)C[C@H](C)N1 [Example 9, 1-{[3-(4-{[(3R,5S)-3,5-dimethyl-1-piperazinyl]methyl}-3-fluorophenyl)-2-pyridinyl]carbonyl}-N-(4-fluorophenyl)-4-piperidinamine] | – | – | < 316 | < 3160 |
| C[C@@H]1CN(Cc2ccc(-c3cccnc3C(=O)N3CCC(Nc4cccc(F)c4)CC3)cc2F)C[C@H](C)N1 [Example 11, 1-{[3-(4-{[(3R,5S)-3,5-dimethyl-1-piperazinyl]methyl}-3-fluorophenyl)-2-pyridinyl]carbonyl}-N-(3-fluorophenyl)-4-piperidinamine] | – | – | < 316 | < 3160 |
| C[C@@H]1CN(Cc2ccc(-c3cccnc3C(=O)N3CCC(Nc4cccc(C#N)c4)CC3)cc2)C[C@H](C)N1 [Example 29, 3-[(1-{[3-(4-{[(3R,5S)-3,5-dimethyl-1-piperazinyl]methyl}phenyl)-2-pyridinyl]carbonyl}-4-piperidinyl)amino]benzonitrile] | < 316 | < 3160 | – | – |
| C[C@@H]1CN(Cc2ccc(-c3cccnc3C(=O)N3CCC(Nc4ccc(F)cc4)C3)cc2)C[C@H](C)N1 (stereo partly drawn) [Example 16, 1-{[3-(4-{[(3R,5S)-3,5-dimethyl-1-piperazinyl]methyl}phenyl)-2-pyridinyl]carbonyl}-N-(4-fluorophenyl)-3-pyrrolidinamine] | < 316 | < 3160 | – | – |
| C[C@@H]1CN(Cc2ccc(-c3cccnc3C(=O)N3CCC(Nc4cccc(F)c4)CC3)cc2)C[C@H](C)N1 [Example 10, 1-{[3-(4-{[(3R,5S)-3,5-dimethyl-1-piperazinyl]methyl}phenyl)-2-pyridinyl]carbonyl}-N-(3-fluorophenyl)-4-piperidinamine] | – | – | < 316 | < 3160 |
